Results on one molecule are retold here after patent publication US5731326A, “PDGF antagonists II” (ZymoGenetics, Inc., priority 1996, dated 1998).

Assay [1] has as its target T1, cell-surface PDGF receptors (Rattus norvegicus, UniProt Q05030).
T1 construct: endogenous in cells; host or cells: rat smooth muscle cells (SMCs), monolayer culture
The assay can be described thus: Inhibition of 125I-PDGF-BB binding to rat SMCs in the presence and absence of human serum. The settings on record: for CPM Bound, Binding Media + 10% Human Serum / CPM Bound, Binding Media: total CPM bound; for CPM Bound, Binding Media + 10% Human Serum: neg. control 1152; for CPM Bound, Binding Media: neg. control 1990. The procedure: NNC92-0270 was analyzed for the ability to inhibit ^125 I-PDGF-BB binding to monolayers of rat SMCs. To assay for inhibition of ^125 I-PDGF-BB binding to rat SMCs, the SMCs were plated at approximately 20,000 cells/well in 24-well culture dishes. The cells were used for assay 2-7 days after plating. The test compound was diluted in binding media (500 ml Ham's F-12 (Gibco BRL), 12 ml 1M Hepes pH 7.4, 5 ml 100×PSN (Gibco BRL), 1 gm rabbit serum albumin (Sigma Chemical Co., St. Louis, Mo.) to the concentrations shown in Table 2, then added to the SMCs (1 ml/well) in triplicate. To the wells was then added 50 μl of a ^125 I-PDGF-BB stock solution. Binding media alone was used as the negative control, and the addition of 200 ng/ml of PDGF-BB was used to determine nonspecific binding for ^125 I-PDGF-BB. The cells were incubated for approximately 11/2 hours at 4° C., then washed with binding media to remove unbound ligand. The cells were then incubated with extraction buffer (20 mM Tris-HCl, pH 8.0, 100 mM NaCl, 1 mM EDTA, 0.5% Nonident P-40, 0.5% sodium deoxycholate, 10 mM NaI, 1% bovine serum albumin), and the extracts were harvested and counted in a gamma counter. The data are presented as specific cpm bound for ^125 I-PDGF-BB. Nonspecific binding, determined by the addition of 200 ng/ml of unlabeled PDGF-BB, was 853 cpm, and has been subtracted from the data presented.
NNC92-0270 was subsequently analyzed for its ability to inhibit ^125 I-PDGF-BB binding to rat SMCs when the radioligand was added to the cells in the presence of 10% human serum. The rat SMCs were plated into 24-well culture dishes and assayed as described above. The test compound was diluted to the concentrations shown in Table 3 in either binding media alone, or binding media containing 10% human serum, and 1 ml aliquots added to the test cells in triplicate. Fifty microliters of a 20×stock solution of ^125 I-PDGF-BB was added to each well. The cells were incubated for 2.5 hours at 4 ° C., washed with binding media to remove unbound ligand, and harvested with extraction buffer. The extracts were then counted in a gamma counter to determine CPM bound. […] It should be noted that the binding of ^125 I-PDGF-BB was lower in the negative control sample containing the human serum, over the negative control sample with binding media alone. The results are presented as total CPM bound.

For assay [2], the system named is baboon smooth muscle cells. The assay can be described thus: Wash-out study of PDGF-BB mitogenic activity on baboon smooth muscle cells. The class given is cell-based. The following applies: mean +/- SD. The procedure: NNC92-0270 was analyzed for prolonged inhibitory effect on PDGF-BB mitogenic activity on baboon smooth muscle cells in a wash-out experiment. Baboon SMCs were plated at 20,000 cells per well in a 24-well culture dish and grown for 2 days. The culture media was removed and replaced with Mito Media (Table 5) to allow the cells to become quiescent. The experiment was set up such that cells were treated with NNC92-0270 or vehicle control (0.5% DMSO) for either 24 hours prior to the addition of PDGF-BB, or sequentially with the addition of PDGF-BB. Those cells initially treated with NNC92-0270 or control vehicle for 24 hours, were washed with Mito Media to remove the test compound and then incubated with PDGF-BB (1 ng/ml) for an additional 24 hours. A second set of cells was treated with NNC92-0270 or vehicle control simultaneously with PDGF-BB for 24 hours. The cells were pulse labeled for 4 hours with [^3 H] thymidine (1 μCi/ml final) harvested with trypsin and counted in a Wallac Betaplate counter to determine CPM for [^3 H] thymidine incorporation.
Acetic acid (10 mM) was used as the PDGF-BB vehicle control and 0.5% DMSO was used as the test compound control.

Each structure is given as a SMILES string. Read-outs that look alike come from different tables or passages of the source.

T1 sequence (Q05030 32-1097): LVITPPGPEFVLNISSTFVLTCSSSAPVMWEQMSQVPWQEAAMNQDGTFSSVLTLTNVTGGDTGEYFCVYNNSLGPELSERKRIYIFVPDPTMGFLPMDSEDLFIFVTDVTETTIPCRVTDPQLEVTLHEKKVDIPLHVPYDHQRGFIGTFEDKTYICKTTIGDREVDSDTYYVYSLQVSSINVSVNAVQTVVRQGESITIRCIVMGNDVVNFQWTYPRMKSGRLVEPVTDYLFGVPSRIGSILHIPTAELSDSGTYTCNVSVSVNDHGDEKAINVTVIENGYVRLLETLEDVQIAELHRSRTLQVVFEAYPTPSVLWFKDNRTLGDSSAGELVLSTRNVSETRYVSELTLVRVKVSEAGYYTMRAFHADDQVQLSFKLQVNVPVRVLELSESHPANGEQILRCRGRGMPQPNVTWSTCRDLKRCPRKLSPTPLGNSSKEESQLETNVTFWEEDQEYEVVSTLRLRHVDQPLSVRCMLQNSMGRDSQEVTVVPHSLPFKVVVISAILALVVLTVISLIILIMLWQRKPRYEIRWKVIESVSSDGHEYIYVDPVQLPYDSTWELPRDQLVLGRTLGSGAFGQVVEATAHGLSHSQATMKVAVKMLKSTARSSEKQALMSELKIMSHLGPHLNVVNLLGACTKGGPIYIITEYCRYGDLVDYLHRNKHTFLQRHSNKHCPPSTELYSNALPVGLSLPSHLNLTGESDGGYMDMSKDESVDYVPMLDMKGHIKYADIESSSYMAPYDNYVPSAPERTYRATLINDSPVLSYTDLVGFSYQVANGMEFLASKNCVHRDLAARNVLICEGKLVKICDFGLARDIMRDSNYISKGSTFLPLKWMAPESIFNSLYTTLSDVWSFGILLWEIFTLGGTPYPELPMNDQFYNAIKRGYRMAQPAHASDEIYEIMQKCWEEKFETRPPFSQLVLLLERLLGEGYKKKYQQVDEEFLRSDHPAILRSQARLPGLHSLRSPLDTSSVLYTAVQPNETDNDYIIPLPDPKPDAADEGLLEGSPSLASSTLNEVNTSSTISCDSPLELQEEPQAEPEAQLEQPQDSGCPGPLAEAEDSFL

`O=C(NN1CCCCC1)NS(=O)(=O)c1ccc(CCNC(=O)c2[nH]c3ccccc3c2OCc2ccccc2)cc1` [NNC92-0270]: the remaining activity at 12.5 µM in assay [1] (12.5 μM, 10% human serum, read-out: % CB (% Control Binding), Binding Media + 10% Human Serum) was found to be 30%; in assay [1] (12.5 μM, binding media alone, read-out: % CB (% Control Binding), Binding Media), 36%. The “CPM Bound, Binding Media + 10% Human Serum” value in assay [1] (12.5 μM, 10% human serum) came to 349 CPM; in assay [1] (25 μM, 10% human serum), 244 CPM; in assay [1] (50 μM, 10% human serum) it was 162 CPM. The “CPM Bound, Binding Media” value in assay [1] (12.5 μM, binding media alone) is 722 CPM; in assay [1] (25 μM, binding media alone) it was 605 CPM; in assay [1] (50 μM, binding media alone), 467 CPM. The remaining activity at 25 µM in assay [1] (25 μM, 10% human serum, read-out: % CB (% Control Binding), Binding Media + 10% Human Serum) is 21%; in assay [1] (25 μM, binding media alone, read-out: % CB (% Control Binding), Binding Media), 30%. Also, the remaining activity at 50 µM is 14% in assay [1] (50 μM, 10% human serum, read-out: % CB (% Control Binding), Binding Media + 10% Human Serum) and 23% in assay [1] (50 μM, binding media alone, read-out: % CB (% Control Binding), Binding Media). In assay [1] (rat SMCs), the “Potency for inhibiting 125I-PDGF-BB binding in 10% human serum compared to binding media alone (in words)” value is listed as “approximately equal potency”. Besides, the “[3H] Thymidine Incorporation (cpm)” value in assay [2] (T = -24 hrs 0.5% DMSO, T = 0 hrs compound simultaneously with PDGF-BB (1 ng/ml)) is 678 +/- 68 cpm; in assay [2] (T = -24 hrs compound, washed out, T = 0 hrs PDGF-BB (1 ng/ml)), 5735 +/- 474 cpm; in assay [2] (T = -24 hrs compound, washed out, T = 0 hrs acetic acid (no PDGF-BB)), 237 +/- 36 cpm.
